For 17 molecules, IC50 and DC50 results are on record in patent US20240294495A1, “COMPOUNDS THAT MEDIATE PROTEIN DEGRADATION AND METHODS OF USE THEREOF” (Monte Rosa Therapeutics, Inc., priority 2021, published 2024).

By IC50 is commonly meant the concentration that inhibits the measured activity by half. The term DC50 denotes the concentration at which degradation of the target reaches its halfway point.

For one experiment, the target named is CRBN-DDB1 (Homo sapiens, UniProt Q96SW2). Put plainly: Compound binding to CRBN by HTRF assay. As to conditions: CRBN-DDB1 2.5 nM, Cy5-Thalidomide 100 nM probe, 30 min incubation; read-out: HTRF Class (Cereblon binding, HTRF IC50). As to the method: Compound activity was monitored in a Homogenous Time-Resolved Fluorescence (HTRF) assay using 1-[5-({2-[2-(2-{[2-(2,6-dioxopiperidin-3-yl)-1,3-dioxo-2,3-dihydro-1H-isoindol-4-yl]oxy}acetamido)ethoxy]ethyl}carbamoyl)pentyl]-3,3-dimethyl-2-[(1E,3E)-5-[(2E)-1,3,3-trimethyl-5-sulfo-2,3-dihydro-1H-indol-2-ylidene]penta-1,3-dien-1-yl]-3H-indol-1-ium-5-sulfonate as a fluorescent probe. Biochemical assays were conducted in Greiner white 384 well HiBase plates (Cat. No 784075-25) in 10 μL total volume. A one pot detection solution of CRBN-DDB1 (2.5 nM), Anti-His Terbium Cryptate Gold (1×, PerkinElmer Cat. #: 61HI2TLB), and Cy5-Thalidomide (100 nM, Tenova Cat.: T52461) was prepared in 20 mM HEPES, 20 mM NaCl, 0.2 mM TCEP, 0.2 mM EDTA, and 0.005% Tween20 was dispensed to each assay plate. Compounds were stored in dry, ambient temperatures at 10 mM. A 10-point, 1:3 dilution series was prepared from 10 mM stock concentrations in Echo-compatible LDV plates. 10 nL of each compound dilution series was dispensed into assays wells using an Echo 650 (Labcyte inc. USA). 10 nL of 10 mM Lenalidomide was transferred into the active-control wells for the assay and 10 nL of DMSO was transferred into the neutral-control wells. The assay was then allowed to incubate for 30 min at ambient temperature after transferring compound. Plate measurements were taken on a Pherastar FSX (BMG Labtech, Germany) using the HTRF Red filter (Ex. 337 nm, em1: 620 nm, em2: 665 nm) (Flashes: 50, Integration time: 60-400 us, Z-height: 10 mm, Ratio-multiplier: 10,000). The HTRF signal was then subsequently normalized to the neutral and active controls. Analysis and IC50 values were derived using KNIME analytics (KNIME Zurich) transformation and fitting within Collaborative Drug Discovery (Collaborative Drug Discovery USA). Ki was derived from the geometric mean of the IC50 values using the Cheng-Prustoff transformation.
CRBN-DDB1, sequence (Q96SW2 whole entry): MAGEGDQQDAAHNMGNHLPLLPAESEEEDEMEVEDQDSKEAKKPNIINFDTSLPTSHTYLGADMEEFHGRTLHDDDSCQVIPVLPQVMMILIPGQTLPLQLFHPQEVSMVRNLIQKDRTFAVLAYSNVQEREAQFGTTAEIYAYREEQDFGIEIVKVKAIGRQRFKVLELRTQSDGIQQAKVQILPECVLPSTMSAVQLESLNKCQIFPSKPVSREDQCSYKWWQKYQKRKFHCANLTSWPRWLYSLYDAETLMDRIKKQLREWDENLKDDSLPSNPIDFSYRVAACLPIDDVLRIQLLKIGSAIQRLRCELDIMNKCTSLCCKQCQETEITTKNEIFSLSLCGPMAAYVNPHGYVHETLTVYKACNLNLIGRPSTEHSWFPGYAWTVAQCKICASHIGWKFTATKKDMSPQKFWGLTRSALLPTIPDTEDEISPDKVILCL
CRBN-DDB1, sequence (Q16531 whole entry partner): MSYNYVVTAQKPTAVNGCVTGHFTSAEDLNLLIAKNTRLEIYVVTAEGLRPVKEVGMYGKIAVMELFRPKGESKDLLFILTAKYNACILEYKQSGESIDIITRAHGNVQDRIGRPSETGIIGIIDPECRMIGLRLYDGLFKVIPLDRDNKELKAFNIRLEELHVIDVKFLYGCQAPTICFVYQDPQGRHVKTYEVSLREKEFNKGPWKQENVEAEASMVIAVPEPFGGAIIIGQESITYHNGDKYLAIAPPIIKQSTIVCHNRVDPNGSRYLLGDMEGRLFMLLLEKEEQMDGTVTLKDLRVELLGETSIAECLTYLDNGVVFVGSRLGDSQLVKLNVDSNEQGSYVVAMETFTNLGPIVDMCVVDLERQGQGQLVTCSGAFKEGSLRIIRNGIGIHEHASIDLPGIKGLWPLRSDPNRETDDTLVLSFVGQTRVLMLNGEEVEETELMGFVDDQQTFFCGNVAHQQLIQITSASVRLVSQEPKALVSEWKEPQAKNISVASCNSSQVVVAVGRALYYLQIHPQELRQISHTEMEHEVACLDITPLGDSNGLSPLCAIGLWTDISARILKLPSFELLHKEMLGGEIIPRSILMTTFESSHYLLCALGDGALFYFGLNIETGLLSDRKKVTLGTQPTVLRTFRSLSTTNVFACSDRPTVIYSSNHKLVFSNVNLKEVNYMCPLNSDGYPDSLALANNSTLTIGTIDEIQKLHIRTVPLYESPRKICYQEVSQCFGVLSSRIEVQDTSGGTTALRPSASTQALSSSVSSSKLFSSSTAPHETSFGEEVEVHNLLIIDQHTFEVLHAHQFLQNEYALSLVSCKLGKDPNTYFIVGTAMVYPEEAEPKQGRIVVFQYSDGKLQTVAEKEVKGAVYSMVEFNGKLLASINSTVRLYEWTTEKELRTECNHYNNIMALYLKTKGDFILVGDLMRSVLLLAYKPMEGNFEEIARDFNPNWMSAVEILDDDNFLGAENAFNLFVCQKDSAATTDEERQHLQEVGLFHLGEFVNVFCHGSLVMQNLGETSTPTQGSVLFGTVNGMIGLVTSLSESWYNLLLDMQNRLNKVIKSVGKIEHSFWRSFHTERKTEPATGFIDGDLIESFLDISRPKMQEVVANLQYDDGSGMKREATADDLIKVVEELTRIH
(§1) In Table 2, each compound is assigned a class (HTRF class) indicating the ability for Cereblon binding by means of their HTRF IC50 values according to Example 3: A, B or C. According to the code, A represents an IC50 value of <100 nM, B represents an IC50 value>100 nM and <1000 nM, C represents an IC50 value>1000 nM. IF Class assigns each compound a code indicating the ability for GSPT1 degradation: A, B or C. According to the code, A represents a DC50 value of <30 nM, B represents a DC50 value>30 nM and <300 nM and C represents a DC50 value of >300 nM.
A general note: TR-FRET usually uses a lanthanide donor and a delayed reading to cut background.

Another experiment concerns the target T1, GSPT1 (Homo sapiens, UniProt P15170+Q96SW2).
T1 construct: CAL-51 cells were purchased from DSMZ (cat. Number ACC302); endogenous in cells; host or cells: CAL-51 (DSMZ ACC302)
Put plainly: Immunofluorescence assay for GSPT1 degradation in CAL-51 cells. To be noted: 6 h treatment, read-out: IF Class (GSPT1 degradation, DC50). It counts as cell-based. As to the method: The representative compounds were tested in an immunofluorescence assay for their activity to degrade GSPT1. CAL-51 cells were purchased from DSMZ (cat. Number ACC302), sub-cultured in 90% Dulbecco's MEM (4.5 g/L glucose, Gibco 11965)+10% heat inactivated FBS (BioConcept, 2-01F136I) and incubated at 37° C., 5% CO2. For the assay imaging microtiter plate Cell Carrier 96 Ultra (Perkin Elmer 6055302) were pre-coated with Fibronectin (Sigma F085, 30 μl at 0.2 μg/mL) in PBS (100 μL, Gibco 14190) for 45 min at room temperature, rinsed with PBS and CAL-51 cells (30K cells/well) were plated and let to adhere overnight. Cells were treated with compounds typically using a serial dilution ranging from 30 μM to 0.1 nM for 6 h. Compounds were stored at 10 mM DMSO stocks. Vehicle (DMSO), positive (CC-885, 10 μM) and rescue controls (positive control plus 0.2 μM bortezomib) were also included at this stage. Cells were subsequently rinsed with PBS and fixed in 10% Formalin solution (50 μl, Sigma HT5011)) for 20 min at room temperature. Following three consecutive PBS washes (100 μL), cells were permeabilized in 0.1% Triton X-100 in PBS (Sigma 93443, 50 μl) for 15 min at room temperature. Following three further PBS washes, 50 μl blocking buffer (1% BSA, Sigma A4503, in PBS) was added for 45 min for signal-to noise reduction. Primary antibody (human GSPT1, Sigma HPA052488) was diluted in blocking buffer (dil.1/300, 35 μL/well) and incubated with the cells overnight at 4° C. After three PBS washes, Alexa-fluor 488 coupled secondary antibodies (Invitrogen, A32731, dil.1/1000), Alexa-fluor 647-Phalloidin (Invitrogen, A22287, dil.1/200) and DAPI (Thermo, #62248, dil.1/1000) were diluted in blocking buffer and incubated with the samples for 2 h at room temperature. After three final PBS washes, samples were conserved in 100 μL PBS in the dark, until measurement. Image acquisition was performed on the Operetta High-Content Imager (Perkin-Elmer). Fluorescence intensity of […] (GSPT1), Alexa-Fluor 647 (Actin) and DAPI (Nucleus) were measured. For the determination of GSPT1 DC50 values, a custom algorithm implemented in the PerkinElmer image analysis software Harmony-Acapella® was developed. After user-defined setting of adjustment parameters, the analysis was run identically without human intervention for all image fields. DAPI staining of the nuclei was used to determine the location of cells using standard nuclei detection modules. Segmentation artifacts were removed by threshold-based filters for area, roundness and intensity. The outline of the cells was determined analogously from the sum of the normalized, smoothed DAPI and Actin channel, starting from each nucleus. The Alexa-Fluor 488 (GSPT1) signal intensity in each cell was finally measured, in order to obtain a Mean intensity per cell. GSPT1 degradation (DC50) was calculated after normalization to controls and data import in CDD vault Database, using non-linear regression.
as §1

A value given as a limit tells only on which side of the number the result lay.

T1 sequence (P15170 whole entry): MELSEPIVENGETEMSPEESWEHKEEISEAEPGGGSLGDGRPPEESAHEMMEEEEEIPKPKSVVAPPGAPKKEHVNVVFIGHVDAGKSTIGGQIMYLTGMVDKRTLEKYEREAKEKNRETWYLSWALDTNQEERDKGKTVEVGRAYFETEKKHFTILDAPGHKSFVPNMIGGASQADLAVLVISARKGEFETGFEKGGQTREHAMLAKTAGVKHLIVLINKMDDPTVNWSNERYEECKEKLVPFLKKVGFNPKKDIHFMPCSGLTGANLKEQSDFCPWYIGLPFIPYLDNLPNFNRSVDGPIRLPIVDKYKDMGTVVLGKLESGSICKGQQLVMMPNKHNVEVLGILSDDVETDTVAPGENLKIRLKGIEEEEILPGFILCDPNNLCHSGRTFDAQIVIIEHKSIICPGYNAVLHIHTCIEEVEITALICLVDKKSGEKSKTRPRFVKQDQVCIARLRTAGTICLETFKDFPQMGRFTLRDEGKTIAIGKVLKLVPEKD
T1 sequence (Q96SW2 whole entry): as the sequence (Q96SW2 whole entry) above
T1 sequence (Q16531 2-1140 partner limits assumed): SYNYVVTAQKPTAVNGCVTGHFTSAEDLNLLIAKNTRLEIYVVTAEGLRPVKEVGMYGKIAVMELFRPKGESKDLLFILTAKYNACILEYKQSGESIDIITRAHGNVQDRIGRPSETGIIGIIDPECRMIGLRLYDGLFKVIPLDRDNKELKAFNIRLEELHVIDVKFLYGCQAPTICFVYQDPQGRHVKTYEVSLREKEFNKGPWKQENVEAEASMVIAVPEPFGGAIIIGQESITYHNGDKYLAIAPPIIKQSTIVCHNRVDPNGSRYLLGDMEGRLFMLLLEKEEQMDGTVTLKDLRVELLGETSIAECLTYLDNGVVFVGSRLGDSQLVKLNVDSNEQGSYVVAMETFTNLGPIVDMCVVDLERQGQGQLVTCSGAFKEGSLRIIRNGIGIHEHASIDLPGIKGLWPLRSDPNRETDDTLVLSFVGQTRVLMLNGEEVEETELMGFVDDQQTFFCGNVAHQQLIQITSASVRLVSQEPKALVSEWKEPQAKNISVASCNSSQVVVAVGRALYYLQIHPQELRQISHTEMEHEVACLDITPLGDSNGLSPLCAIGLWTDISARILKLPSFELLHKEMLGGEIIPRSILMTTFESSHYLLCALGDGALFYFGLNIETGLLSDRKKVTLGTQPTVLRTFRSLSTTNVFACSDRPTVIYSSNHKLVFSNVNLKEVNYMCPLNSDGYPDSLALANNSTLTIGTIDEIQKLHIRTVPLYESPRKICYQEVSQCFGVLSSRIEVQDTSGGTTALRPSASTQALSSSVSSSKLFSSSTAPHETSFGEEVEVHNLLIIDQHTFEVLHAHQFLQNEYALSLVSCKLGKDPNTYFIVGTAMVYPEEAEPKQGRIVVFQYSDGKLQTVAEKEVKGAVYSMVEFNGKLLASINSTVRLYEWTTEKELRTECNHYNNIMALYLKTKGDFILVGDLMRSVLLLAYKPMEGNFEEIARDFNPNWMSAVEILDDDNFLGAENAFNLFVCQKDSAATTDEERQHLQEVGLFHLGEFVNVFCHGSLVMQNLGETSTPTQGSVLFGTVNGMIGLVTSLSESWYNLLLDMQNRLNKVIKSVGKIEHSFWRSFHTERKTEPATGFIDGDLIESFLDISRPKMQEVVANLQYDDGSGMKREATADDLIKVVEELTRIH

For `O=C1CCC(c2c(F)cc(N3CC(NC(=O)Cc4ccc(F)cc4F)C3)cc2F)C(=O)N1` (stereo not shown) [Compound 11, 2-(2,4-difluorophenyl)-N-(1-(4-(2,6-dioxopiperidin-3-yl)-3,5-difluorophenyl)azetidin-3-yl)acetamide], the IC50 at CRBN-DDB1 was in the range of 100 to 1000 nM. Moreover, the DC50 at GSPT1 is below 30 nM.

Take `Cc1nc(CC(=O)NC2CN(c3cc(F)c(C4CCC(=O)NC4=O)c(F)c3)C2)ccc1Cl` (stereo not shown) [Compound 25, 2-(5-chloro-6-methylpyridin-2-yl)-N-(1-(4-(2,6-dioxopiperidin-3-yl)-3,5-difluorophenyl)azetidin-3-yl)acetamide]: the IC50 on CRBN-DDB1 lay within 100 to 1000 nM. Moreover, the DC50 at GSPT1 is above 300 nM.

In the case of `Cc1cc(Cl)ccc1CC(=O)NC1CN(c2cc(F)c(C3CCC(=O)NC3=O)c(F)c2)C1` (stereo not shown) [Compound 52, 2-(4-chloro-2-methylphenyl)-N-(1-(4-(2,6-dioxopiperidin-3-yl)-3,5-difluorophenyl)azetidin-3-yl)acetamide], the IC50 at CRBN-DDB1 is 100 to 1000 nM. Moreover, the DC50 on GSPT1 fell in the range of 30 to 300 nM.

For `O=C1CCC(c2c(F)cc(N3CC(NC(=O)Cc4ncc(Cl)cc4F)C3)cc2F)C(=O)N1` (stereo not shown) [Compound 15, 2-(5-chloro-3-fluoropyridin-2-yl)-N-(1-(4-(2,6-dioxopiperidin-3-yl)-3,5-difluorophenyl)azetidin-3-yl)acetamide], the IC50 at CRBN-DDB1 is 100 to 1000 nM. Also, at GSPT1, the DC50 was above 300 nM.

For the molecule `Cc1ccc(NC(=O)CC2CN(c3cc(F)c(C4CCC(=O)NC4=O)c(F)c3)C2)cc1Cl` (stereo not shown) [Compound 40, N-(3-chloro-4-methylphenyl)-2-(1-(4-(2,6-dioxopiperidin-3-yl)-3,5-difluorophenyl)azetidin-3-yl)acetamide], the IC50 on CRBN-DDB1 was above 1000 nM. Further, the half-maximal degradation concentration (DC50) on GSPT1 was below 30 nM.

For the molecule `Cc1cc(CC(=O)NC2CN(c3cc(F)c(C4CCC(=O)NC4=O)c(F)c3)C2)cc(C)n1` (stereo not shown) [Compound 49, 2-(2,6-dimethylpyridin-4-yl)-N-(1-(4-(2,6-dioxopiperidin-3-yl)-3,5-difluorophenyl)azetidin-3-yl)acetamide], the IC50 on CRBN-DDB1 lay within 100 to 1000 nM. The DC50 on GSPT1 was above 300 nM.

For `Cc1cc(C)cc(C(F)(F)C(=O)NC2CN(c3cc(F)c(C4CCC(=O)NC4=O)c(F)c3)C2)c1` (stereo not shown) [Compound 50, 2-(3,5-dimethylphenyl)-N-(1-(4-(2,6-dioxopiperidin-3-yl)-3,5-difluorophenyl)azetidin-3-yl)-2,2-difluoroacetamide], the IC50 at CRBN-DDB1 was in the range of 100 to 1000 nM. Further, the DC50 on GSPT1 is above 300 nM.

Take `O=C1CCC(c2c(F)cc(N3CC(NC(=O)CC4CCC4)C3)cc2F)C(=O)N1` (stereo not shown) [Compound 2, 2-cyclobutyl-N-(1-(4-(2,6-dioxopiperidin-3-yl)-3,5-difluorophenyl)azetidin-3-yl)acetamide]: the IC50 at CRBN-DDB1 is 100 to 1000 nM. Also, the DC50 at GSPT1 is above 300 nM.

`CC(C)(C)C12CC(C(=O)NC3CN(c4cc(F)c(C5CCC(=O)NC5=O)c(F)c4)C3)(C1)C2` (stereo not shown) [Compound 23, 3-(tert-butyl)-N-(1-(4-(2,6-dioxopiperidin-3-yl)-3,5-difluorophenyl)azetidin-3-yl) bicyclo[1.1.1]pentane-1-carboxamide]: on CRBN-DDB1, the IC50 is 100 to 1000 nM. Besides, on GSPT1, the DC50 was above 300 nM.

For the molecule `Cc1cc(C)nc(CC(=O)NC2CN(c3cc(F)c(C4CCC(=O)NC4=O)c(F)c3)C2)c1` (stereo not shown) [Compound 51, 2-(4,6-dimethylpyridin-2-yl)-N-(1-(4-(2,6-dioxopiperidin-3-yl)-3,5-difluorophenyl)azetidin-3-yl) acetamide], at CRBN-DDB1, the IC50 fell in the range of 100 to 1000 nM. For the same molecule, on GSPT1, the DC50 is above 300 nM.

Turning to `N#Cc1ccc(CC(=O)NC2CN(c3cc(F)c(C4CCC(=O)NC4=O)c(F)c3)C2)c(F)c1` (stereo not shown) [Compound 47, 2-(4-cyano-2-fluorophenyl)-N-(1-(4-(2,6-dioxopiperidin-3-yl)-3,5-difluorophenyl)azetidin-3-yl)acetamide], the IC50 at CRBN-DDB1 fell in the range of 100 to 1000 nM. Also, on GSPT1, the DC50 was above 300 nM.

Consider `O=C1CCC(c2c(F)cc(N3CC(NC(=O)Cc4ccc(C5CCC5)cc4)C3)cc2F)C(=O)N1` (stereo not shown) [Compound 20, 2-(4-cyclobutylphenyl)-N-(1-(4-(2,6-dioxopiperidin-3-yl)-3,5-difluorophenyl)azetidin-3-yl)acetamide], for which the IC50 at CRBN-DDB1 was in the range of 100 to 1000 nM. On GSPT1, the DC50 was above 300 nM.

For `Cc1cc(F)c(NC(=O)CC2CN(c3cc(F)c(C4CCC(=O)NC4=O)c(F)c3)C2)cc1Cl` (stereo not shown) [Compound 5, N-(5-chloro-2-fluoro-4-methylphenyl)-2-(1-(4-(2,6-dioxopiperidin-3-yl)-3,5-difluorophenyl)azetidin-3-yl)acetamide], the IC50 on CRBN-DDB1 is 100 to 1000 nM. For the same molecule, at GSPT1, the DC50 was below 30 nM.

`Cc1cc(CC(=O)NC2CN(c3cc(F)c(C4CCC(=O)NC4=O)c(F)c3)C2)ccc1F` (stereo not shown) [Compound 30, N-(1-(4-(2,6-dioxopiperidin-3-yl)-3,5-difluorophenyl)azetidin-3-yl)-2-(4-fluoro-3-methylphenyl)acetamide]: the IC50 on CRBN-DDB1 lay in the range of 100 to 1000 nM. Also, on GSPT1, the DC50 is 30 to 300 nM.

As to `O=C1CCC(c2c(F)cc(N3CC(NC(=O)Cc4cc(F)cc(OC(F)F)c4)C3)cc2F)C(=O)N1` (stereo not shown) [Compound 26, 2-(3-(difluoromethoxy)-5-fluorophenyl)-N-(1-(4-(2,6-dioxopiperidin-3-yl)-3,5-difluorophenyl)azetidin-3-yl)acetamide], at CRBN-DDB1, the IC50 is 100 to 1000 nM. The DC50 on GSPT1 is above 300 nM.

Take `Cc1cc(C)cc(CC(=O)NC2CN(c3cc(F)c(C4CCC(=O)NC4=O)c(F)c3)C2)c1` (stereo not shown) [Compound 29, 2-(3,5-dimethylphenyl)-N-(1-(4-(2,6-dioxopiperidin-3-yl)-3,5-difluorophenyl)azetidin-3-yl)acetamide]: the IC50 at CRBN-DDB1 was in the range of 100 to 1000 nM. On GSPT1, the DC50 was below 30 nM.

For the molecule `C[C@@H]1CCCN1c1ccc(CC(=O)NC2CN(c3cc(F)c(C4CCC(=O)NC4=O)c(F)c3)C2)cn1` (stereo partly drawn) [Compound 19, N-(1-(4-(2,6-dioxopiperidin-3-yl)-3,5-difluorophenyl)azetidin-3-yl)-2-(6-((R)-2-methylpyrrolidin-1-yl)pyridin-3-yl)acetamide], at CRBN-DDB1, the IC50 was below 100 nM. Moreover, the DC50 at GSPT1 was above 300 nM.
